Assays:
COX-2 = biological target: T1, COX-2 (Homo sapiens, UniProt P35354); experiment: COX-2 assay; assay type: biochemical; settings: FIG. 2; compared to control diclofenac and dimethyl sulfoxide blank
T1 sequence (P35354 18-604): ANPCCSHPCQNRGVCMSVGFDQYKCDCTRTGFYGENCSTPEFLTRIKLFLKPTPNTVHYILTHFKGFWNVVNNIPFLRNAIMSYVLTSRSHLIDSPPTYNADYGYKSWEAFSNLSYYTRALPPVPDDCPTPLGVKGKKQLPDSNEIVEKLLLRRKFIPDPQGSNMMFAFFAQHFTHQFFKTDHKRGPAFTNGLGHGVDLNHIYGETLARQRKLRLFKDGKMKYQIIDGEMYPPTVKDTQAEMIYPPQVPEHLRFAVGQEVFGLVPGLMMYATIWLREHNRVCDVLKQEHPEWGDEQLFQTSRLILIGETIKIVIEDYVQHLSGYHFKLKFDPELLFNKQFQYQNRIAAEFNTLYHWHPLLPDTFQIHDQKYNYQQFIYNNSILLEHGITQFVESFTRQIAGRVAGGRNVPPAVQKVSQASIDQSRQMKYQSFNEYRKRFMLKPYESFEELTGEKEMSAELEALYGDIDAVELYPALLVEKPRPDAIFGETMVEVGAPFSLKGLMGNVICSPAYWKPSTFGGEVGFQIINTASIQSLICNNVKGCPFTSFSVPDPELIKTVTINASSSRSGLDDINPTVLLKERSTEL
Protocol: (§1) The fractions isolated may be tested for activity against COX-2 or TNF-α using assays as would be known to those having skill in the art. Representative examples of such assays that could be used include a COX-2 inhibitory fluorometric assay or a TNF-α inhibitory fluorometric assay, each of which are commercially available from numerous suppliers.
(§2) The crude sample provided was dissolved in Ethyl acetate and dried down on Silica gel in a 1:3 ratio. Medium pressure chromatography was performed using a Teledyne-Isco combi-flash Torrent system. A 750 gram silica column was used with a Hexanes to Ethyl acetate gradient, which gave 11 fractions. Fraction A was then subjected to high pressure liquid chromatography on a preparative Silica NP column (250×20 mm), with a gradient between Hexanes to 20% ethyl acetate, which gave 4 fractions. The active fraction was further purified, with a gradient of Hexanes to 100% ethyl acetate on a preparative Silica NP column (250×20 mm), which gave 23 fractions. Fraction 17 was subjected to two rounds of NP hplc using an analytical Silica column (250×10 mm), which gave the final pure compound. An LC-20AD Shimadzu system and an SPD-20A UV detector was used for the hplc separations. All steps were guided using bioassay data from the COX-2 and TNF-α assays. […]

TNF-α = experiment: tumor necrosis factor alpha (TNF-α) assay; assay type: cell-based; settings: FIG. 1; y-axis TNF-α in picograms per milliliter, lower values mean lower inflammation in the cell
Protocol: as §1, §2

inhibitory activity on COX-2 (level of prostaglandins in the sample) (COX-2): limited to no inhibitory activity
SMILES: C[C@@]12CCC[C@@H]3c4ccccc4[C@@H](C[C@@H]31)OC2=O [compound of formula (I)]
inhibitory activity of TNF-α (levels of TNF-α) (TNF-α): inhibitory activity
